Experiment: recombinant UMI read abundance after kanamycin selection (control-corrected) (log10(CPM+1)); higher = more efficient recombination; extreme values may be limits of the assay; sequences stand for … in AGTGCAGAGAAAATCGGCCAGTTTTCTCTGCCTGCAGTCCGCATGCCGTGGGACCCCTTGGGTTCTAACCTGTTGCCTAGATTTATGCAGCGGACTGCCTTTCTCCCAAAGTGATAAACCGG…AGGTTGGTTTCACT; site = the 11-nt donor
Method in brief: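 In Escherichia coli, a pool of donor and donor-binding-loop pairs, each with a 12-nt UMI, was tested for the IS621 bridge recombinase. Plating was on IPTG (0.07 mM) plus kanamycin, or without selection, in two replicates. Recombinant UMIs were amplified by PCR across the donor–target junction and sequenced, and counts were reported as log10(CPM+1) after averaging and control-derived scaling.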
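Note: IS621 bridge recombinase in Escherichia coli cells against a fixed T5 target plasmid.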

Sequence | recombinant UMI read abundance (log10)
TGAAGTCCATGGACCGGTTTTCCCGGTAATCCGTATTTGTA (site TTAAGTCCTTA) | 0.888
TGAATACCATGGACCGGTTTTCCCGGTAATCCGTATTTGTC (site TGAATACCTGA) | 0
TGAATTTCATGGACCGGTTTTCCCGGTAATCCGTATTTGAG (site TGAATTTCTCT) | 0.492
TGACCATCATGGACCGGTTTTCCCGGTAATCCGTATTTGCT (site CGATCATCTAG) | 0
TGACCATCATGGACCGGTTTTCCCGGTAATCCGTATTTGCT (site TGACCATCTAG) | 2.24
TGACCGGCATGGACCGGTTTTCCCGGTAATCCGTATTTGGG (site TGACCGGCTCC) | 0.00617
TGACGTACATGGACCGGTTTTCCCGGTAATCCGTATTTGTC (site TGACGTACTGA) | 0.893
TGAGAACCATGGACCGGTTTTCCCGGTAATCCGTATTTGAT (site GACATTGCTCA) | 0.0061
TGAGCCTCATGGACCGGTTTTCCCGGTAATCCGTATTTGAC (site TGAGCCTCTGT) | 2.84
TGAGCTGCATGGACCGGTTTTCCCGGTAATCCGTATTTGTG (site TAAGCTGCTCA) | 0.038
TGAGCTGCATGGACCGGTTTTCCCGGTAATCCGTATTTGTG (site TCAGCTGCTCA) | 0
TGAGCTGCATGGACCGGTTTTCCCGGTAATCCGTATTTGTG (site TGAGCTGCTCA) | 0.639
TGAGCTGCATGGACCGGTTTTCCCGGTAATCCGTATTTGTG (site TTAGCTGCTCA) | 0.0107
TGAGGTCCATGGACCGGTTTTCCCGGTAATCCGTATTTGGA (site TGAGGTCCTTC) | 0.172
TGAGTAGCATGGACCGGTTTTCCCGGTAATCCGTATTTGTA (site TGAGTAGCTTA) | 2.48
TGAGTGGCATGGACCGGTTTTCCCGGTAATCCGTATTTGGT (site AGAGTGGCTAC) | 0.339
TGAGTGGCATGGACCGGTTTTCCCGGTAATCCGTATTTGGT (site CGAGTGGCTAC) | 0.605
TGAGTGGCATGGACCGGTTTTCCCGGTAATCCGTATTTGGT (site GGAGTGGCTAC) | 0.0161
TGAGTGGCATGGACCGGTTTTCCCGGTAATCCGTATTTGGT (site TGAGTGGCTAC) | 0.902
TGAGTTGCATGGACCGGTTTTCCCGGTAATCCGTATTTGCA (site TGAGTTGCTTG) | 1.47
TGATAGCCATGGACCGGTTTTCCCGGTAATCCGTATTTGAG (site TGATAGCCTCT) | 0.0234
TGATAGCCATGGACCGGTTTTCCCGGTAATCCGTATTTGGA (site TGATAGCCTTC) | 0.0136
TGATAGGCATGGACCGGTTTTCCCGGTAATCCGTATTTGGT (site TGATAGGCTAC) | 0.902
TGATAGGCATGGACCGGTTTTCCCGGTAATCCGTATTTGGT (site TGCTAGGCTAC) | 0.0143
TGATAGGCATGGACCGGTTTTCCCGGTAATCCGTATTTGGT (site TGGTAGGCTAC) | 0.0189

Sequence | recombinant UMI read abundance (log10)
TGATAGGCATGGACCGGTTTTCCCGGTAATCCGTATTTGGT (site TGTTAGGCTAC) | 0.02
TGATCATCATGGACCGGTTTTCCCGGTAATCCGTATTTGGT (site CGATCATCTAG) | 0
TGATCATCATGGACCGGTTTTCCCGGTAATCCGTATTTGGT (site TGATCATCTAC) | 1.42
TGCAAGTCATGGACCGGTTTTCCCGGTAATCCGTATTTGGC (site TGCAAGTCTGC) | 2.11
TGCACACCATGGACCGGTTTTCCCGGTAATCCGTATTTGAC (site TGAACACCTGT) | 0
TGCACACCATGGACCGGTTTTCCCGGTAATCCGTATTTGAC (site TGCACACCTGT) | 0.51
TGCACACCATGGACCGGTTTTCCCGGTAATCCGTATTTGAC (site TGGACACCTGT) | 0
TGCACACCATGGACCGGTTTTCCCGGTAATCCGTATTTGAC (site TGTACACCTGT) | 0
TGCAGGGCATGGACCGGTTTTCCCGGTAATCCGTATTTGCC (site TGCAGGGCTGG) | 1.82
TGCAGTGCATGGACCGGTTTTCCCGGTAATCCGTATTTGTT (site TGCAGTGCTAA) | 0.416
TGCCCCACATGGACCGGTTTTCCCGGTAATCCGTATTTGAC (site TGCCCCACTGT) | 1.39
TGCCGGCCATGGACCGGTTTTCCCGGTAATCCGTATTTGCC (site TGCCGGCCTGG) | 0
TGCCGGCCATGGACCGGTTTTCCCGGTAATCCGTATTTGGA (site TGCCGGCCTTC) | 0.0137
TGCCTTTCATGGACCGGTTTTCCCGGTAATCCGTATTTGAC (site AGCCTTTCTGT) | 0
TGCCTTTCATGGACCGGTTTTCCCGGTAATCCGTATTTGAC (site CGCCTTTCTGT) | 0
TGCCTTTCATGGACCGGTTTTCCCGGTAATCCGTATTTGAC (site GGCCTTTCTGT) | 0
TGCCTTTCATGGACCGGTTTTCCCGGTAATCCGTATTTGAC (site TGCCTTTCTGT) | 0
TGCGGAACATGGACCGGTTTTCCCGGTAATCCGTATTTGTT (site TGCGGAACTAA) | 0.718
TGCGGCCCATGGACCGGTTTTCCCGGTAATCCGTATTTGCG (site TGCGGCCCTCG) | 0.0374
TGCGGTACATGGACCGGTTTTCCCGGTAATCCGTATTTGAG (site TGCGGTACTCT) | 0.757
TGCGGTCCATGGACCGGTTTTCCCGGTAATCCGTATTTGAA (site TGCGGTCCTTT) | 0
TGCGGTCCATGGACCGGTTTTCCCGGTAATCCGTATTTGAG (site TGCGGTCCTCT) | 0.0157
TGCTAAGCATGGACCGGTTTTCCCGGTAATCCGTATTTGGT (site TGCTAAGCTAC) | 0.906
TGCTAAGCATGGACCGGTTTTCCCGGTAATCCGTATTTGGT (site TGCTACGCTAC) | 0
TGCTAAGCATGGACCGGTTTTCCCGGTAATCCGTATTTGGT (site TGCTAGGCTAC) | 0.0128

Sequence | recombinant UMI read abundance (log10)
TGCTAAGCATGGACCGGTTTTCCCGGTAATCCGTATTTGGT (site TGCTATGCTAC) | 0.0152
TGCTAGACATGGACCGGTTTTCCCGGTAATCCGTATTTGGT (site TGCTAGACTAC) | 0.462
TGCTAGACATGGACCGGTTTTCCCGGTAATCCGTATTTGGT (site TGCTAGCCTAC) | 0.00952
TGCTAGACATGGACCGGTTTTCCCGGTAATCCGTATTTGGT (site TGCTAGGCTAC) | 0.0111
TGCTAGACATGGACCGGTTTTCCCGGTAATCCGTATTTGGT (site TGCTAGTCTAC) | 0.357
TGCTAGGCATGGACCGGTTTTCCCGGTAATCCGTATTTGGT (site AGCTAGGCTAC) | 0.0183
TGCTAGGCATGGACCGGTTTTCCCGGTAATCCGTATTTGGT (site CGCTAGGCTAC) | 0.019
TGCTAGGCATGGACCGGTTTTCCCGGTAATCCGTATTTGGT (site GGCTAGGCTAC) | 0.0224
TGCTAGGCATGGACCGGTTTTCCCGGTAATCCGTATTTGGT (site TACTAGGCTAC) | 0.00634
TGCTAGGCATGGACCGGTTTTCCCGGTAATCCGTATTTGGT (site TCCTAGGCTAC) | 0.0105
TGCTAGGCATGGACCGGTTTTCCCGGTAATCCGTATTTGGT (site TGATAGGCTAC) | 0.00571
TGCTAGGCATGGACCGGTTTTCCCGGTAATCCGTATTTGGT (site TGCAAGGCTAC) | 0
TGCTAGGCATGGACCGGTTTTCCCGGTAATCCGTATTTGGT (site TGCCAGGCTAC) | 0.00869
TGCTAGGCATGGACCGGTTTTCCCGGTAATCCGTATTTGGT (site TGCGAGGCTAC) | 0.00468
TGCTAGGCATGGACCGGTTTTCCCGGTAATCCGTATTTGGT (site TGCTAAGCTAC) | 0.0704
TGCTAGGCATGGACCGGTTTTCCCGGTAATCCGTATTTGGT (site TGCTACGCTAC) | 0.0185
TGCTAGGCATGGACCGGTTTTCCCGGTAATCCGTATTTGGT (site TGCTAGACTAC) | 0.0977
TGCTAGGCATGGACCGGTTTTCCCGGTAATCCGTATTTGGT (site TGCTAGCCTAC) | 0.0225
TGCTAGGCATGGACCGGTTTTCCCGGTAATCCGTATTTGGT (site TGCTAGGCTAA) | 0.0155
TGCTAGGCATGGACCGGTTTTCCCGGTAATCCGTATTTGGT (site TGCTAGGCTAC) | 0.108
TGCTAGGCATGGACCGGTTTTCCCGGTAATCCGTATTTGGT (site TGCTAGGCTAG) | 0.0108
TGCTAGGCATGGACCGGTTTTCCCGGTAATCCGTATTTGGT (site TGCTAGGCTAT) | 0.0134
TGCTAGGCATGGACCGGTTTTCCCGGTAATCCGTATTTGGT (site TGCTAGGCTCC) | 0.0152
TGCTAGGCATGGACCGGTTTTCCCGGTAATCCGTATTTGGT (site TGCTAGGCTGC) | 0.0103
TGCTAGGCATGGACCGGTTTTCCCGGTAATCCGTATTTGGT (site TGCTAGGCTTC) | 0.0129
